The test addresses human F508del-CFTR (Homo sapiens, UniProt P13569, DEL508-508). In words: F508del-CFTR cell surface expression (corrector activity), DiscoveRx ß-galactosidase complementation chemiluminescence assay in recombinant U2OS cell line.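 As to all read-outs here: U2OS cells co-expressing ProLink-tagged F508del-CFTR and a membrane-anchored enzyme acceptor, where more surface CFTR restores β-galactosidase activity measured by chemiluminescence.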 To be noted: U2OS cells, 16h compound incubation; for EC50: EC50, F508del-CFTR cell surface expression, geomean of several measurements; for Emax: U2OS, in relation to the Emax of the corrector lumacaftor (=100%), arithmetic mean.

Data on 13 molecules can be found in patent US20240208992A1, “MACROCYCLES AS CFTR MODULATORS” (Idorsia Pharmaceuticals Ltd, priority 2021, published 2024).

What is called EC50 is the midpoint of the concentration-response curve. In general, Emax refers to the maximal effect, on the per cent scale that the assay sets.

Sequence of human F508del-CFTR (P13569 with tags, fused parts or gaps DEL508-508): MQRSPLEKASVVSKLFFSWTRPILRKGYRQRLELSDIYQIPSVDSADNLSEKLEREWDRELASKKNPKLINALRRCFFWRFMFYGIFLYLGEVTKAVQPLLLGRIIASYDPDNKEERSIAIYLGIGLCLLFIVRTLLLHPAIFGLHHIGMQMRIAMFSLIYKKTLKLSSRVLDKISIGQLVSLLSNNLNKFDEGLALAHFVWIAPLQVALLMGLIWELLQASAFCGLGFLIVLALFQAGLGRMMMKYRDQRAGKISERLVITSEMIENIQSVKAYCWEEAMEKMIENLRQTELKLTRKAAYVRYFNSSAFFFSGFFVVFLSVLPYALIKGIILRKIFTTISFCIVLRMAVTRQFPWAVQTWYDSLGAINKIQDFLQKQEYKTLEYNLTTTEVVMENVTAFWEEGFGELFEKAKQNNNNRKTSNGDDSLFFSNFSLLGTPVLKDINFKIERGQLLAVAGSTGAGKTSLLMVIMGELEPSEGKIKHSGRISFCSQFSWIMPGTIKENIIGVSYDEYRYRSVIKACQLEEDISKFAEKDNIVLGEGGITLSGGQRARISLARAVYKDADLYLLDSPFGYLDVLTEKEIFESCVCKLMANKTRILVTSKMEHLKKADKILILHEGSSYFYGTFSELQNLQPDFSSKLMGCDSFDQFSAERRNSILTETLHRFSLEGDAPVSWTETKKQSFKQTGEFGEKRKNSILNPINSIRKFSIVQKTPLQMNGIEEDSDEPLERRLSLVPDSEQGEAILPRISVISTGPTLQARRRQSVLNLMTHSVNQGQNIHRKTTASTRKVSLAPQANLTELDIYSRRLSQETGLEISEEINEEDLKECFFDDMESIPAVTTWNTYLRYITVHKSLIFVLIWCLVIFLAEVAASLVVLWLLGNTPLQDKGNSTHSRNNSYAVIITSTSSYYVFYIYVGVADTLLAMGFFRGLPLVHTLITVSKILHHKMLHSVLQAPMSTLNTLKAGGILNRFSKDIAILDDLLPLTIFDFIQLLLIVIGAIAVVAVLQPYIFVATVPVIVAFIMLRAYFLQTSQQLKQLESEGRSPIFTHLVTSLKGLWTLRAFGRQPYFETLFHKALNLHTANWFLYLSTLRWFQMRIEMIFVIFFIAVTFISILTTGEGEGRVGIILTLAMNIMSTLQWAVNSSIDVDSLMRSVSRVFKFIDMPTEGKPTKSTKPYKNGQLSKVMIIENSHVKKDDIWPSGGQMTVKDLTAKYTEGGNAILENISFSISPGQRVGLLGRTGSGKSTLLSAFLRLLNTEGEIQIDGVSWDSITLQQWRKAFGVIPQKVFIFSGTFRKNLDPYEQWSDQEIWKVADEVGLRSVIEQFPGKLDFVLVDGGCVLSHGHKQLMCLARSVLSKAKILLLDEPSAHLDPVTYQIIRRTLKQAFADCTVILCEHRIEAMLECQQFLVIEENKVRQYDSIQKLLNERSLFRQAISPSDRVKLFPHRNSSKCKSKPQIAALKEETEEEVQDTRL

Consider `C#Cc1nn(CCNC(=O)[C@@H]2CC(=O)N(C)[C@@H](CC(C)C)C(=O)N3CCCC[C@@H]3C(=O)N[C@H](Cc3ccccc3)COc3cc(C)nc(OC)c3C(=O)N2)nc1C` [Example 834, (7S,11S,17aR,20R)-20-benzyl-N-(2-(4-ethynyl-5-methyl-2H-1,2,3-triazol-2-yl)ethyl)-11-isobutyl-4-methoxy-2,10-dimethyl-5,9,12,18-tetraoxo-5,6,7,8,9,10,11,12,15,16,17,17a,18,19,20,21-hexadecahydro-14H-dipyrido[2,1-f:3′,4′-p][1]oxa[4,7,10,14]tetraazacycloheptadecine-7-carboxamide], for which the EC50 came to 240 nM and the Emax was found to be 300%.

For the molecule `COc1nc(C)cc2c1C(=O)N[C@H](C(=O)NCCn1nnc(C3CC3)n1)CC(=O)N(C)[C@@H](CC(C)C)C(=O)N1CCCC[C@@H]1C(=O)N[C@H](Cc1ccccc1)CO2` [Example 835, (7S,11S,17aR,20R)-20-benzyl-N-(2-(5-cyclopropyl-2H-tetrazol-2-yl)ethyl)-11-isobutyl-4-methoxy-2,10-dimethyl-5,9,12,18-tetraoxo-5,6,7,8,9,10,11,12,15,16,17,17a,18,19,20,21-hexadecahydro-14H-dipyrido[2,1-f:3′,4′-p][1]oxa[4,7,10,14]tetraazacycloheptadecine-7-carboxamide], the EC50 was determined as 363 nM and the Emax was 326%.

With `COc1nc(C)cc2c1C(=O)N[C@H](C(=O)NCCn1ncc(C#N)n1)CC(=O)N(C)[C@@H](CC(C)C)C(=O)N1CCCC[C@@H]1C(=O)N[C@H](Cc1ccccc1)CO2` [Example 836, (7S,11S,17aR,20R)-20-benzyl-N-(2-(4-cyano-2H-1,2,3-triazol-2-yl)ethyl)-11-isobutyl-4-methoxy-2,10-dimethyl-5,9,12,18-tetraoxo-5,6,7,8,9,10,11,12,15,16,17,17a,18,19,20,21-hexadecahydro-14H-dipyrido[2,1-f:3′,4′-p][1]oxa[4,7,10,14]tetraazacycloheptadecine-7-carboxamide], the EC50 was 967 nM and the Emax was determined as 257%.

Take `CC(C)C[C@H]1C(=O)N(C)[C@H](Cc2nc(-c3ccc(F)cn3)no2)C(=O)N[C@H](Cc2ccccc2)COc2cnc3ccc(F)cc3c2C(=O)N[C@H](C(=O)NCCn2ncc(C3CC3)n2)CC(=O)N1C` [Example 837, (3S,7S,10R,13R)-13-benzyl-N-(2-(4-cyclopropyl-2H-1,2,3-triazol-2-yl)ethyl)-20-fluoro-10-((3-(5-fluoropyridin-2-yl)-1,2,4-oxadiazol-5-yl)methyl)-7-isobutyl-6,9-dimethyl-1,5,8,11-tetraoxo-1,2,3,4,5,6,7,8,9,10,11,12,13,14-tetradecahydro-[1]oxa[4,7,10,14]tetraazacycloheptadecino[17,16-c]quinoline-3-carboxamide]: the EC50 is 198 nM and the Emax is 358%.

Turning to `CC(C)C[C@H]1C(=O)N(C)C2(CC(F)(F)C2)C(=O)N[C@H](Cc2ccccc2)COc2cnc3ccc(F)cc3c2C(=O)N[C@H](C(=O)NCCn2nnc(C3CC3)n2)CC(=O)N1C` [Example 838, (3′S,7′S,13′R)-13′-benzyl-N-(2-(5-cyclopropyl-2H-tetrazol-2-yl)ethyl)-3,3,20′-trifluoro-7′-isobutyl-6′,9′-dimethyl-1′,5′,8′,11′-tetraoxo-2′,3′,4′,5′,6′,7′,8′,9′,11′,12′,13′,14′-dodecahydro-1′H-spiro[cyclobutane-1,10′-[1]oxa[4,7,10,14]tetraazacycloheptadecino[17,16-c]quinoline]-3′-carboxamide], the EC50 turned out to be 118 nM and the Emax came to 358%.

In the case of `COc1cc(CCNC(=O)[C@@H]2CC(=O)N(C)[C@@H](CC(C)C)C(=O)N(C)C3(CC(F)(F)C3)C(=O)N[C@H](Cc3ccccc3)COc3cnc4ccc(F)cc4c3C(=O)N2)on1` [Example 839, (3′S,7′S,13′R)-13′-benzyl-3,3,20′-trifluoro-7′-isobutyl-N-(2-(3-methoxyisoxazol-5-yl)ethyl)-6′,9′-dimethyl-1′,5′,8′,11′-tetraoxo-2′,3′,4′,5′,6′,7′,8′,9′,11′,12′,13′,14′-dodecahydro-1′H-spiro[cyclobutane-1,10′-[1]oxa[4,7,10,14]tetraazacycloheptadecino[17,16-c]quinoline]-3′-carboxamide], the EC50 was determined as 123 nM and the Emax turned out to be 336%.

Turning to `CC(C)C[C@H]1C(=O)N(C)[C@H](Cc2nc(-c3ccc(F)cn3)no2)C(=O)N[C@H](Cc2ccccc2)COc2cnc3ccc(F)cc3c2C(=O)N[C@H](C(=O)NCCn2nc3ccccc3n2)CC(=O)N1C` [Example 840, (3S,7S,10R,13R)-N-(2-(2H-benzo[d][1,2,3]triazol-2-yl)ethyl)-13-benzyl-20-fluoro-10-((3-(5-fluoropyridin-2-yl)-1,2,4-oxadiazol-5-yl)methyl)-7-isobutyl-6,9-dimethyl-1,5,8,11-tetraoxo-1,2,3,4,5,6,7,8,9,10,11,12,13,14-tetradecahydro-[1]oxa[4,7,10,14]tetraazacycloheptadecino[17,16-c]quinoline-3-carboxamide], the EC50 was 128 nM and the Emax was 363%.

For the molecule `CC(C)C[C@H]1C(=O)N(C)C2(CC(F)(F)C2)C(=O)N[C@H](Cc2ccccc2)COc2cnc3ccc(F)cc3c2C(=O)N[C@H](C(=O)NCCc2nc(C3CC3)no2)CC(=O)N1C` [Example 841, (3′S,7′S,13′R)-13′-benzyl-N-(2-(3-cyclopropyl-1,2,4-oxadiazol-5-yl)ethyl)-3,3,20′-trifluoro-7′-isobutyl-6′,9′-dimethyl-1′,5′,8′,11′-tetraoxo-2′,3′,4′,5′,6′,7′,8′,9′,11′,12′,13′,14′-dodecahydro-1′H-spiro[cyclobutane-1,10′-[1]oxa[4,7,10,14]tetraazacycloheptadecino[17,16-c]quinoline]-3′-carboxamide], the EC50 was found to be 120 nM and the Emax is 271%.

`CC(C)C[C@H]1C(=O)N(C)[C@H](Cc2nc(-c3ccc(F)cn3)no2)C(=O)N[C@H](Cc2ccccc2)COc2cnc3ccc(F)cc3c2C(=O)N[C@H](C(=O)NC[C@@H](O)c2ccccc2)CC(=O)N1C` [Example 842, (3S,7S,10R,13R)-13-benzyl-20-fluoro-10-((3-(5-fluoropyridin-2-yl)-1,2,4-oxadiazol-5-yl)methyl)-N-((S)-2-hydroxy-2-phenylethyl)-7-isobutyl-6,9-dimethyl-1,5,8,11-tetraoxo-1,2,3,4,5,6,7,8,9,10,11,12,13,14-tetradecahydro-[1]oxa[4,7,10,14]tetraazacycloheptadecino[17,16-c]quinoline-3-carboxamide]: the EC50 stood at 495 nM and the Emax was 305%.

Consider `COc1ccc(CCNC(=O)[C@@H]2CC(=O)N(C)[C@@H](CC(C)C)C(=O)N(C)[C@H](Cc3nc(-c4ccc(F)cn4)no3)C(=O)N[C@H](Cc3ccccc3)COc3cnc4ccc(F)cc4c3C(=O)N2)cn1` [Example 843, (3S,7S,10R,13R)-13-benzyl-20-fluoro-10-((3-(5-fluoropyridin-2-yl)-1,2,4-oxadiazol-5-yl)methyl)-7-isobutyl-N-(2-(6-methoxypyridin-3-yl)ethyl)-6,9-dimethyl-1,5,8,11-tetraoxo-1,2,3,4,5,6,7,8,9,10,11,12,13,14-tetradecahydro-[1]oxa[4,7,10,14]tetraazacycloheptadecino[17,16-c]quinoline-3-carboxamide], for which the EC50 is 114 nM and the Emax amounted to 368%.

As to `CC(C)C[C@H]1C(=O)N(C)[C@H](Cc2nc(-c3ccc(F)cn3)no2)C(=O)N[C@H](Cc2ccccc2)COc2cnc3ccc(F)cc3c2C(=O)N[C@H](C(=O)NCCc2nc3ncccn3n2)CC(=O)N1C` [Example 844, (3S,7S,10R,13R)-N-(2-([1,2,4]triazolo[1,5-a]pyrimidin-2-yl)ethyl)-13-benzyl-20-fluoro-10-((3-(5-fluoropyridin-2-yl)-1,2,4-oxadiazol-5-yl)methyl)-7-isobutyl-6,9-dimethyl-1,5,8,11-tetraoxo-1,2,3,4,5,6,7,8,9,10,11,12,13,14-tetradecahydro-[1]oxa[4,7,10,14]tetraazacycloheptadecino[17,16-c]quinoline-3-carboxamide], the EC50 amounted to 1040 nM and the Emax was 356%.

Turning to `COCCCNC(=O)[C@@H]1CC(=O)N(C)[C@@H](CC(C)C)C(=O)N(C)[C@H](Cc2nc(-c3ccc(F)cn3)no2)C(=O)N[C@H](Cc2ccccc2)COc2cnc3ccc(F)cc3c2C(=O)N1` [Example 845, (3S,7S,10R,13R)-13-benzyl-20-fluoro-10-((3-(5-fluoropyridin-2-yl)-1,2,4-oxadiazol-5-yl)methyl)-7-isobutyl-N-(3-methoxypropyl)-6,9-dimethyl-1,5,8,11-tetraoxo-1,2,3,4,5,6,7,8,9,10,11,12,13,14-tetradecahydro-[1]oxa[4,7,10,14]tetraazacycloheptadecino[17,16-c]quinoline-3-carboxamide], the EC50 turned out to be 453 nM and the Emax worked out at 308%.

`CC(C)C[C@H]1C(=O)N(C)[C@H](Cc2nc(-c3ccc(F)cn3)no2)C(=O)N[C@H](Cc2ccccc2)COc2cnc3ccc(F)cc3c2C(=O)N[C@H](C(=O)NCCCOC(F)(F)F)CC(=O)N1C` [Example 846, (3S,7S,10R,13R)-13-benzyl-20-fluoro-10-((3-(5-fluoropyridin-2-yl)-1,2,4-oxadiazol-5-yl)methyl)-7-isobutyl-6,9-dimethyl-1,5,8,11-tetraoxo-N-(3-(trifluoromethoxy)propyl)-1,2,3,4,5,6,7,8,9,10,11,12,13,14-tetradecahydro-[1]oxa[4,7,10,14]tetraazacycloheptadecino[17,16-c]quinoline-3-carboxamide]: the EC50 was 165 nM and the Emax came out at 261%.
